Assay results taken from article PMC7351026, “Serum Half-Lives for Short- and Long-Chain Perfluoroalkyl Acids after Ceasing Exposure from Drinking Water Contaminated by Firefighting Foam” (Environmental Health Perspectives, 2020).
Like-named read-outs stand apart in the source and are kept apart here.

Legend:
Serum/water ratio = format: in vivo, human; settings: median serum level of first samples (26 employees) divided by airport drinking-water level
Protocol: The ratio of serum and water concentration for each PFAS (serum/water ratio) was calculated based on median serum level in the first serum sample obtained from all 26 airport employees divided by the drinking-water concentration. This ratio is an indicator of PFAS accumulation in body.

[1] = cited from earlier work; for Estimated half-life (geometric mean): Chinese population, from renal clearance of single paired serum and urine samples, ref Zhang et al. 2013
[2] = PFAS levels in urine samples of airport employees, specific-gravity adjusted (LC/MS/MS); format: in vivo, human; settings: for Specific gravity adjusted urine level, median (range): second to fifth samplings, 17 airport employees
Protocol: Only one employee provided a single urine sample. […] All employees provided written informed consent.
The samples were thawed 1–2 h, then mixed by vortex shaker and manual turning. […] For the urine samples, 50μL urine was mixed with 25μL of methanol and 25μL of a 50% acetonitrile solution containing isotopically labeled internal standards (see Table S1). Then samples were shaken vigorously for 30 min and centrifuged at 3,000×g for 10 min at room temperature.
Aliquots of 20μL of the sample were analyzed using LC/MS/MS. […] The analysis was performed in negative ion mode. The ion source temperature was at 350°C.
(§1) Urinary PFAS concentrations were specific-gravity adjusted. The ratio of urine and serum concentration for each PFAS (urine/serum ratio) at each sampling was calculated based on PFAS concentrations in paired serum and urine samples from 17 employees. Then the personal average urine/serum ratio was calculated using the mean value of repeated samplings for each employee.

[3] = Individual serum elimination rate and half-life (linear regression per employee); settings: individual estimate; for half-life: human, serum, oral, HL (half-life)
Method in brief: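 Log-transformed serum PFAS concentrations regressed on days since clean bottled water supply, per employee, assuming one-compartment first-order elimination. Individual k taken as −β (negative slope); half-life as ln2/k for each PFAS. No half-life calculated when β was positive.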

[4] = Urine/serum ratio in paired samples; format: in vivo, human; settings: mean of four paired samplings per subject, 17 airport employees
Protocol: as §1

[5] = Population average serum elimination rate and half-life (linear mixed model, one compartment, first-order); settings: population average; for half-life: human, serum, oral
Method in brief: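 Log-transformed serum PFAS fitted with a linear mixed model (random intercept only; age and sex as covariates), assuming one-compartment first-order elimination. Time counted in days from clean-water supply to first sampling. k is the negative average slope; half-life = ln2/k; sensitivity run after subtracting reference-population median background.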

[6] = 2nd sampling (October 2018), count 17
[7] = 3rd sampling (November, 2018), count 16
[8] = 4th sampling (December 2018), count 14
[9] = 5th sampling (January 2019), count 12
[10] = Half-life (95% CI), model with original serum levels, age and sex as covariates
[11] = model with original serum levels, age and sex as covariates

For `O=C(O)C(F)(F)C(F)(F)C(F)(F)C(F)(F)C(F)(F)C(F)(F)F` [PFHpA, perfluoroheptanoic acid], the Serum/water ratio (Serum/water ratio) is given as 4.74, the “Estimated half-life (geometric mean)” value ([1]; older females plus males) is given as 1.0 y and the “Estimated half-life (geometric mean)” value ([1]; young females) is given as 0.82 y. For the same compound, the “First-order apparent elimination half-life (geometric mean)” value ([1]; whole blood, five ski wax technicians, 7 months follow-up, ref Russell et al. 2015a) was 70 days, the “Specific gravity adjusted urinary level, 25 percentile” value [2, 6] was 0.02 ng/mL and the “Specific gravity adjusted urinary level, 75 percentile” value [2, 6] was 0.04 ng/mL. The “Specific gravity adjusted urinary level, Max” value [2, 6] was 0.05 ng/mL, the “Specific gravity adjusted urinary level, Median” value [2, 6] was 0.03 ng/mL and the “Specific gravity adjusted urinary level, Min” value [2, 6] was “< LOD”. For the same compound, the “Specific gravity adjusted urinary level, 25 percentile” value [2, 7] was 0.01 ng/mL, the “Specific gravity adjusted urinary level, 75 percentile” value [2, 7] was 0.03 ng/mL and the “Specific gravity adjusted urinary level, Max” value [2, 7] was 0.08 ng/mL. The “Specific gravity adjusted urinary level, Median” value [2, 7] was 0.02 ng/mL, the “Specific gravity adjusted urinary level, Min” value [2, 7] was “< LOD” and the “Specific gravity adjusted urinary level, 25 percentile” value [2, 8] was 0.01 ng/mL. For the same compound, the “Specific gravity adjusted urinary level, 75 percentile” value [2, 8] was 0.03 ng/mL, the “Specific gravity adjusted urinary level, Max” value [2, 8] was 0.06 ng/mL and the “Specific gravity adjusted urinary level, Median” value [2, 8] was 0.02 ng/mL. For the same compound, the “Specific gravity adjusted urinary level, Min” value [2, 8] was “< LOD”, the “Specific gravity adjusted urinary level, 25 percentile” value [2, 9] was “< LOD” and the “Specific gravity adjusted urinary level, 75 percentile” value [2, 9] was 0.03 ng/mL. The “Specific gravity adjusted urinary level, Max” value [2, 9] was 0.06 ng/mL, the “Specific gravity adjusted urinary level, Median” value [2, 9] was 0.02 ng/mL and the “Specific gravity adjusted urinary level, Min” value [2, 9] was “< LOD”. The “Specific gravity adjusted urine level, median (range)” value [2] was 0.025 ( <LOD –0.080) ng/mL, the half-life ([3]; subject 1, 5 samples) was 110 days and the half-life ([3]; subject 2, 5 samples) was 73 days. It also gave a half-life ([3]; subject 3, 5 samples) of 146 days, a half-life ([3]; subject 4, 5 samples) of 73 days and a half-life ([3]; subject 5, 5 samples) of 183 days. It also gave a half-life ([3]; subject 6, 4 samples) of 73 days, a half-life ([3]; subject 7, 5 samples) of 36.5 days and a half-life ([3]; subject 8, 5 samples) of 36.5 days. For the same compound, the half-life ([3]; subject 9, 5 samples) was 36.5 days, the half-life ([3]; subject 10, 5 samples) was 110 days and the half-life ([3]; subject 11, 5 samples) was 110 days. It also gave a half-life ([3]; subject 12, 5 samples) of 36.5 days, a half-life ([3]; subject 13, 5 samples) of 36.5 days and a half-life ([3]; subject 14, 4 samples) of 36.5 days. For the same compound, the half-life ([3]; subject 15, 5 samples) was 73 days, the half-life ([3]; subject 16, 5 samples) was 256 days and the half-life ([3]; subject 17, 5 samples) was 36.5 days. It also gave an Elimination rate ([3]; subject 1, 5 samples) of 2.1 yearly, an Elimination rate ([3]; subject 2, 5 samples) of 3.7 yearly and an Elimination rate ([3]; subject 3, 5 samples) of 1.7 yearly. It also gave an Elimination rate ([3]; subject 4, 5 samples) of 3.2 yearly, an Elimination rate ([3]; subject 5, 5 samples) of 1.3 yearly and an Elimination rate ([3]; subject 6, 4 samples) of 4.1 yearly. For the same compound, the Elimination rate ([3]; subject 7, 5 samples) was 4.6 yearly, the Elimination rate ([3]; subject 8, 5 samples) was 5.4 yearly and the Elimination rate ([3]; subject 9, 5 samples) was 7.8 yearly. For the same compound, the Elimination rate ([3]; subject 10, 5 samples) was 2.2 yearly, the Elimination rate ([3]; subject 11, 5 samples) was 2.6 yearly and the Elimination rate ([3]; subject 12, 5 samples) was 6.7 yearly. It also gave an Elimination rate ([3]; subject 13, 5 samples) of 5.4 yearly, an Elimination rate ([3]; subject 14, 4 samples) of 6.6 yearly and an Elimination rate ([3]; subject 15, 5 samples) of 3.9 yearly. The Elimination rate ([3]; subject 16, 5 samples) was 0.9 yearly, the Elimination rate ([3]; subject 17, 5 samples) was 5.2 yearly and the “Personal average urine/serum ratio, median (range)” value [4] was 0.086 (0.018–0.32). The half-life ([5]; Average serum half-life, linear mixed model with original serum levels, 17 airport employees after end of drinking-water exposure) was 62 days, the half-life [5, 10] was 62.1 days and the “Constant elimination rate (95% CI)” value [5, 11] was 4.11 (3.13, 5.09) yearly.

For `O=S(=O)(O)C(F)(F)C(F)(F)C(F)(F)C(F)(F)C(F)(F)C(F)(F)F` [PFHxS, perfluorohexane sulfonic acid], the Serum/water ratio (Serum/water ratio) is listed as 107, the Average half-life ([1]; general Swedish population (Ronneby, 106 Swedes) with high exposure through drinking water, 2 y follow-up from 6 months after clean water, ref Li et al. 2018) is listed as 5.3 y and the “Specific gravity adjusted urinary level, 25 percentile” value [2, 6] is listed as 0.06 ng/mL. The “Specific gravity adjusted urinary level, 75 percentile” value [2, 6] was 0.13 ng/mL, the “Specific gravity adjusted urinary level, Max” value [2, 6] was 0.28 ng/mL and the “Specific gravity adjusted urinary level, Median” value [2, 6] was 0.09 ng/mL. The “Specific gravity adjusted urinary level, Min” value [2, 6] was 0.03 ng/mL, the “Specific gravity adjusted urinary level, 25 percentile” value [2, 7] was 0.05 ng/mL and the “Specific gravity adjusted urinary level, 75 percentile” value [2, 7] was 0.13 ng/mL. The “Specific gravity adjusted urinary level, Max” value [2, 7] was 0.26 ng/mL, the “Specific gravity adjusted urinary level, Median” value [2, 7] was 0.07 ng/mL and the “Specific gravity adjusted urinary level, Min” value [2, 7] was 0.03 ng/mL. The “Specific gravity adjusted urinary level, 25 percentile” value [2, 8] was 0.05 ng/mL, the “Specific gravity adjusted urinary level, 75 percentile” value [2, 8] was 0.17 ng/mL and the “Specific gravity adjusted urinary level, Max” value [2, 8] was 0.73 ng/mL. For the same compound, the “Specific gravity adjusted urinary level, Median” value [2, 8] was 0.12 ng/mL, the “Specific gravity adjusted urinary level, Min” value [2, 8] was 0.04 ng/mL and the “Specific gravity adjusted urinary level, 25 percentile” value [2, 9] was 0.07 ng/mL. The “Specific gravity adjusted urinary level, 75 percentile” value [2, 9] was 0.11 ng/mL, the “Specific gravity adjusted urinary level, Max” value [2, 9] was 0.31 ng/mL and the “Specific gravity adjusted urinary level, Median” value [2, 9] was 0.08 ng/mL. For the same compound, the “Specific gravity adjusted urinary level, Min” value [2, 9] was 0.06 ng/mL, the “Specific gravity adjusted urine level, median (range)” value [2] was 0.092 (0.025–0.73) ng/mL and the half-life ([3]; subject 1, 5 samples) was 1280 days. For the same compound, the half-life ([3]; subject 2, 5 samples) was 730 days, the half-life ([3]; subject 3, 5 samples) was 548 days and the half-life ([3]; subject 4, 5 samples) was 3510 days. For the same compound, the half-life ([3]; subject 5, 5 samples) was 1720 days, the half-life ([3]; subject 7, 5 samples) was 840 days and the half-life ([3]; subject 10, 5 samples) was 694 days. The half-life ([3]; subject 11, 5 samples) was 1100 days, the half-life ([3]; subject 12, 5 samples) was 584 days and the half-life ([3]; subject 13, 5 samples) was 511 days. The half-life ([3]; subject 14, 4 samples) was 438 days, the half-life ([3]; subject 15, 5 samples) was 804 days and the half-life ([3]; subject 16, 5 samples) was 6940 days. It also gave a half-life ([3]; subject 17, 5 samples) of 584 days, an Elimination rate ([3]; subject 1, 5 samples) of 0.2 yearly and an Elimination rate ([3]; subject 2, 5 samples) of 0.3 yearly. For the same compound, the Elimination rate ([3]; subject 3, 5 samples) was 0.5 yearly, the Elimination rate ([3]; subject 4, 5 samples) was 0.1 yearly and the Elimination rate ([3]; subject 5, 5 samples) was 0.1 yearly. The Elimination rate ([3]; subject 6, 4 samples) was −0.1 yearly, the Elimination rate ([3]; subject 7, 5 samples) was 0.3 yearly and the Elimination rate ([3]; subject 8, 5 samples) was −0.01 yearly. For the same compound, the Elimination rate ([3]; subject 9, 5 samples) was −0.04 yearly, the Elimination rate ([3]; subject 10, 5 samples) was 0.4 yearly and the Elimination rate ([3]; subject 11, 5 samples) was 0.2 yearly. The Elimination rate ([3]; subject 12, 5 samples) was 0.4 yearly, the Elimination rate ([3]; subject 13, 5 samples) was 0.5 yearly and the Elimination rate ([3]; subject 14, 4 samples) was 0.6 yearly. It also gave an Elimination rate ([3]; subject 15, 5 samples) of 0.3 yearly, an Elimination rate ([3]; subject 16, 5 samples) of 0.04 yearly and an Elimination rate ([3]; subject 17, 5 samples) of 0.4 yearly. For the same compound, the “Personal average urine/serum ratio, median (range)” value [4] was 0.00093 (0.0006–0.0018), the half-life [5, 10] was 1040 days and the half-life ([5]; Half-life (95% CI), model with serum levels after subtraction of background exposure (sensitivity analysis)) was 1040 days. The “Constant elimination rate (95% CI)” value [5, 11] was 0.24 (0.16, 0.33) yearly and the “Constant elimination rate (95% CI)” value ([5]; model with serum levels after subtraction of background exposure (sensitivity analysis)) was 0.24 (0.16, 0.33) yearly.
